# Experiments:
# [1] = molecular target: T1, Amine oxidase [flavin-containing] A (Homo sapiens, UniProt P21397); assay: DRUGMATRIX: Monoamine Oxidase MAO-A enzyme inhibition (substrate: Kynuramine); parameters: species or system BTI-TN-5B1-4; conditions: bti-tn-5b1-4; Not Active = under 50% inhibition at 10 µM
# T1 sequence (P21397 whole entry): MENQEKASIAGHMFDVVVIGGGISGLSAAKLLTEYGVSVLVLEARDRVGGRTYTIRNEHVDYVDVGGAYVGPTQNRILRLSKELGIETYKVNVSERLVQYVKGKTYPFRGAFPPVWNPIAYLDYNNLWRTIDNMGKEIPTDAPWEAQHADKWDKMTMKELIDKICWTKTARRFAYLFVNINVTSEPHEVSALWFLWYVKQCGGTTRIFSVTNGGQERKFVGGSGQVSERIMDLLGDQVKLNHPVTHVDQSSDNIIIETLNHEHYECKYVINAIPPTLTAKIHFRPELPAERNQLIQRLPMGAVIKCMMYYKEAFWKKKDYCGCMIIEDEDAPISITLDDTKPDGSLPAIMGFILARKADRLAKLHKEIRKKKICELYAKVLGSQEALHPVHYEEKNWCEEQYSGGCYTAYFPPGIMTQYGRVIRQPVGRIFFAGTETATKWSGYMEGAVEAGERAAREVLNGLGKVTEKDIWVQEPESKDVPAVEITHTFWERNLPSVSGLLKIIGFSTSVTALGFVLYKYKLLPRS
# [2] = DRUGMATRIX: Imidazoline I2, Central radioligand binding (ligand: [3H] Idazoxan); assay type: cell membranes, Rattus norvegicus, Wistar, Cerebral cortex, Membrane; conditions: Not Active = under 50% inhibition at 10 µM
# [3] = DRUGMATRIX: Calcium Channel Type L, Phenylalkylamine radioligand binding (ligand: [3H] (-)-Desmethoxyverapamil (D-888)); assay type: cell membranes, Rattus norvegicus, Wistar, Brain, Membrane; conditions: Not Active = under 50% inhibition at 10 µM
# [4] = molecular target: Vascular endothelial growth factor receptor 1 (Homo sapiens, UniProt P17948); assay type: cell-based; conditions: huvec; further: in other assays of this panel Not Active means under 50% inhibition at 10 µM
# Chain of Vascular endothelial growth factor receptor 1 (P17948 whole entry): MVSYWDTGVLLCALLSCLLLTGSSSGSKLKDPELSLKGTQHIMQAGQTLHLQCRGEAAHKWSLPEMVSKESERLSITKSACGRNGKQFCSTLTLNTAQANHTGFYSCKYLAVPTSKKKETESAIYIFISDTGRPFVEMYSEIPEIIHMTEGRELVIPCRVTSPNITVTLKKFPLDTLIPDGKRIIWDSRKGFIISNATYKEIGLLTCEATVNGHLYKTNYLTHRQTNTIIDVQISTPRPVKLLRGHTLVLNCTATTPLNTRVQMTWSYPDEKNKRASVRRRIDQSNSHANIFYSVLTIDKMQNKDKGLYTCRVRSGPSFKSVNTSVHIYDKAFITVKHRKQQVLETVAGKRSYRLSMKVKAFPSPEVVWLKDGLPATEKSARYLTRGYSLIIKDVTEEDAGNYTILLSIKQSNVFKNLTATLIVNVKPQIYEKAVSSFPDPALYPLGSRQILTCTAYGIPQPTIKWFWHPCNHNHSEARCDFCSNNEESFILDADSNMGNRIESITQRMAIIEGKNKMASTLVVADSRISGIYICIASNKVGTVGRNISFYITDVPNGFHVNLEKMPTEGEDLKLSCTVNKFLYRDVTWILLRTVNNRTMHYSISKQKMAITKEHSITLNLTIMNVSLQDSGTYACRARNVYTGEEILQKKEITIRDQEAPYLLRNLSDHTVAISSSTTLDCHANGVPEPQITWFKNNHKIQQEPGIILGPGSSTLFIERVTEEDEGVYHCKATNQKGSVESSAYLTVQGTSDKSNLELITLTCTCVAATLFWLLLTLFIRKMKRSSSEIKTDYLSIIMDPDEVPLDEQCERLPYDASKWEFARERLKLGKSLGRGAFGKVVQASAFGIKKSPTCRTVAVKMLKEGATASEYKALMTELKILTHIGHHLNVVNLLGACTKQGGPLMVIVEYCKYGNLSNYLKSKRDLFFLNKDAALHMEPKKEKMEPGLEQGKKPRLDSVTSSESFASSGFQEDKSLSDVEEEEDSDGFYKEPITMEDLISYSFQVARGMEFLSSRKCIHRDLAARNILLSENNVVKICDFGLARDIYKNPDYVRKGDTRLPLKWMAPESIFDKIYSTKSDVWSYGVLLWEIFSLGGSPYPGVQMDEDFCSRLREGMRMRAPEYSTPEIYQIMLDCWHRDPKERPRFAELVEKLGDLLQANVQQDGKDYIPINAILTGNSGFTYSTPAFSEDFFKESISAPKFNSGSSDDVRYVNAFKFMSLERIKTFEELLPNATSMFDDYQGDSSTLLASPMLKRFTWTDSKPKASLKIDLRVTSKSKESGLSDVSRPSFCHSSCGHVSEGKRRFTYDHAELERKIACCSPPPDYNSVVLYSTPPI
# [5] = molecular target: T2, Adenosine receptor A3 (Homo sapiens, UniProt P0DMS8); assay type: cell membranes, CHO-K1, Membrane;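 further: radioligand binding assay with AB-MECA serving as the labeled ligand; in other assays of this panel Not Active means under 50% inhibition at 10 µM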
# T2 sequence (P0DMS8 whole entry): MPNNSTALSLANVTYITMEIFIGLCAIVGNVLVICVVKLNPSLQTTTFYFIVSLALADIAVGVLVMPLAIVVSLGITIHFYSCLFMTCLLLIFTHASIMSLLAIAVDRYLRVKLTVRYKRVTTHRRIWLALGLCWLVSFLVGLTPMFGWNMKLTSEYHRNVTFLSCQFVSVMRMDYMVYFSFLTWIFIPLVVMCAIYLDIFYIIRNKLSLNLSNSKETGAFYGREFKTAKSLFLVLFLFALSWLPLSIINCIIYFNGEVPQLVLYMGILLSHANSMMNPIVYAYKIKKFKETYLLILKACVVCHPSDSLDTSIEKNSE
# [6] = molecular target: Receptor tyrosine-protein kinase erbB-2 (Homo sapiens, UniProt P04626); assay: biochemical; assay type: cell-based, Insect cells; conditions: insect cells;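 further: inhibition of HER2 kinase enzyme activity, measured with Poly(Glu:Tyr) as the phosphorylation substrate; in other assays of this panel Not Active means under 50% inhibition at 10 µM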
# Chain of Receptor tyrosine-protein kinase erbB-2 (P04626 whole entry): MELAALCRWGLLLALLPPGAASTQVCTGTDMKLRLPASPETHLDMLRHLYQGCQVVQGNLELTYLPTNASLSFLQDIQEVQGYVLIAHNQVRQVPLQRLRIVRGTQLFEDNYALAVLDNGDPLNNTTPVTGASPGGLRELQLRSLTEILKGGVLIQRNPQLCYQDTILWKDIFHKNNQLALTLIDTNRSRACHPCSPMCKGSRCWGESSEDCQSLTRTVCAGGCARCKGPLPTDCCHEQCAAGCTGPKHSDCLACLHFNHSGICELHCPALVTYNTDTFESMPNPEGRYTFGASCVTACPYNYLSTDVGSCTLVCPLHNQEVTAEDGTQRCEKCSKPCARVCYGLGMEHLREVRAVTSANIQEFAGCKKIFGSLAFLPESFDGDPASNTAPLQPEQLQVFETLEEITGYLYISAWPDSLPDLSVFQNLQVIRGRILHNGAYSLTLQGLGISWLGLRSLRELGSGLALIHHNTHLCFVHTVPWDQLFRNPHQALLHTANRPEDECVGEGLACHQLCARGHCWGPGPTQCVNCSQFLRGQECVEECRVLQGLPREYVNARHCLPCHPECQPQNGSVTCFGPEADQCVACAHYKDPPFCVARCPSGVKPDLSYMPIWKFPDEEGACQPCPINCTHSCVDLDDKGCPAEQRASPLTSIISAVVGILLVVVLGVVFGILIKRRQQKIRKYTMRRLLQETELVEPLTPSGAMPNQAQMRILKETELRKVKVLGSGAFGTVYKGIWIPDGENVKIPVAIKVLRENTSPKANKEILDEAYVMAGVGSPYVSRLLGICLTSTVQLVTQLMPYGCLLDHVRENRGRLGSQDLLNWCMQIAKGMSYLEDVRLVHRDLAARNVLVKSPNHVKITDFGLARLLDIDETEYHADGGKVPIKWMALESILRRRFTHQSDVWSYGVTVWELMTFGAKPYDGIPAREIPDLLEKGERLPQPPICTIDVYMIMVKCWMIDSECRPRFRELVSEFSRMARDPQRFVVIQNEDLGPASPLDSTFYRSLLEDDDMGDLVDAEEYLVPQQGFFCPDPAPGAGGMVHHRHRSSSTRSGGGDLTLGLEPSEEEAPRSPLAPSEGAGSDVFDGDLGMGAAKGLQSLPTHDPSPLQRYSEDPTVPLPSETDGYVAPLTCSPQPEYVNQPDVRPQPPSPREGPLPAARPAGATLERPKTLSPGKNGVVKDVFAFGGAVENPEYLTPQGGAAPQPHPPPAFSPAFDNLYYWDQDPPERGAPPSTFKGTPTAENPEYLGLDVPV
Compound,IC50 [1],IC50 [2],Ki [2],IC50 [3],Ki [3],IC50 [4],IC50 ([5]; cho-k1),IC50 [6],IC50 ([2]; read-out: IC50),Ki ([2]; read-out: Ki),IC50 ([3]; read-out: IC50),Ki ([3]; read-out: Ki),IC50 ([5]; read-out: IC50),Ki ([5]; read-out: Ki),Ki [1],Ki [4],Ki ([5]; cho-k1)
CCCNC(C)C(=O)Nc1ccccc1C (stereo not given) [PRILOCAINE],Not Active,Not Active,Not Active,Not Active,Not Active,Not Active,Not Active,Not Active,,,,,,,,,
NS(=O)(=O)c1cc(C2(O)NC(=O)c3ccccc32)ccc1Cl (stereo not given) [CHLORTHALIDONE],Not Active,Not Active,Not Active,Not Active,Not Active,Not Active,Not Active,Not Active,,,,,,,,,
CCN(CC)CCCC(C)Nc1c2ccc(Cl)cc2nc2ccc(OC)cc12 (stereo not given) [QUINACRINE],Not Active,,,,,Not Active,Not Active,Not Active,1.52 µM,1.01 µM,0.739 µM,0.719 µM,,,,,
CN1CCC(=C2c3ccccc3CC(=O)c3sccc32)CC1 [KETOTIFEN],Not Active,Not Active,Not Active,Not Active,Not Active,Not Active,Not Active,Not Active,,,,,,,,,
Cc1c(O)cccc1C(=O)N[C@@H](CSc1ccccc1)[C@H](O)CN1C[C@H]2CCCC[C@H]2C[C@H]1C(=O)NC(C)(C)C,Not Active,Not Active,Not Active,,,Not Active,,Not Active,,,18.4 µM,17.9 µM,14.8 µM,8.36 µM,,,
Cn1c(=O)c2c(ncn2C)n(C)c1=O [CAFFEINE],Not Active,Not Active,Not Active,Not Active,Not Active,Not Active,Not Active,Not Active,,,,,,,,,
CC(C)NCC(O)c1ccccc1Cl (stereo not given) [CLORPRENALINE],Not Active,Not Active,Not Active,Not Active,Not Active,Not Active,Not Active,Not Active,,,,,,,,,
NC(=O)c1cccnc1 [NIACINAMIDE],Not Active,Not Active,Not Active,Not Active,Not Active,Not Active,Not Active,Not Active,,,,,,,,,
C[C@]12C=CC(=O)C=C1CC[C@H]1[C@@H]3C[C@@H](O)[C@](O)(C(=O)CO)[C@@]3(C)C[C@H](O)[C@@]12F [TRIAMCINOLONE],Not Active,Not Active,Not Active,Not Active,Not Active,Not Active,Not Active,Not Active,,,,,,,,,
CC(=O)OCC(=O)[C@@]1(O)CC[C@H]2[C@@H]3CCC4=CC(=O)CC[C@]4(C)[C@@]3(F)[C@@H](O)C[C@@]21C [FLUDROCORTISONE ACETATE],Not Active,Not Active,Not Active,Not Active,Not Active,Not Active,Not Active,Not Active,,,,,,,,,
CN(C)C(=O)Oc1cccc([N+](C)(C)C)c1.[Br-] [NEOSTIGMINE BROMIDE],Not Active,Not Active,Not Active,Not Active,Not Active,Not Active,Not Active,Not Active,,,,,,,,,
C[C@]12CC[C@@H]3c4ccc(O)cc4CC[C@H]3[C@@H]1C[C@@H](O)[C@@H]2O [ESTRIOL],Not Active,Not Active,Not Active,Not Active,Not Active,Not Active,Not Active,Not Active,,,,,,,,,
CCN(CC)CCNC(=O)c1ccc(N)cc1 [PROCAINAMIDE],Not Active,Not Active,Not Active,Not Active,Not Active,Not Active,Not Active,Not Active,,,,,,,,,
O=C(O)P(=O)(O)O [FOSCARNET],Not Active,Not Active,Not Active,Not Active,Not Active,Not Active,Not Active,Not Active,,,,,,,,,
C[C@H]1[C@H](NC(=O)/C(=N\OC(C)(C)C(=O)O)c2csc(N)n2)C(=O)N1S(=O)(=O)O [AZTREONAM],Not Active,Not Active,Not Active,Not Active,Not Active,Not Active,Not Active,Not Active,,,,,,,,,
CN1C[C@@H]2C[C@H]1CN2c1cc2c(cc1F)c(=O)c(C(=O)O)cn2C1CC1 [DANOFLOXACIN],Not Active,Not Active,Not Active,Not Active,Not Active,Not Active,Not Active,Not Active,,,,,,,,,
CC(=O)OCC(=O)[C@@]12OC(C)(C)O[C@@H]1C[C@H]1[C@@H]3C[C@H](F)C4=CC(=O)C=C[C@]4(C)[C@@]3(F)[C@@H](O)C[C@@]12C [FLUOCINONIDE],Not Active,Not Active,Not Active,Not Active,Not Active,Not Active,Not Active,Not Active,,,,,,,,,
CN1CCCC(CN2c3ccccc3Sc3ccccc32)C1 (stereo not given) [MEPAZINE],Not Active,Not Active,Not Active,,,Not Active,Not Active,Not Active,,,1.55 µM,1.5 µM,,,,,
NCCCNCCSP(=O)(O)O [AMIFOSTINE],Not Active,Not Active,Not Active,Not Active,Not Active,Not Active,Not Active,Not Active,,,,,,,,,
CC[C@]1(O)C[C@@H]2CN(CCc3c([nH]c4ccccc34)[C@@](C(=O)OC)(c3cc4c(cc3OC)N(C)[C@H]3[C@@](O)(C(N)=O)[C@H](O)[C@]5(CC)C=CCN6CC[C@]43[C@@H]65)C2)C1 [VINDESINE],Not Active,Not Active,Not Active,Not Active,Not Active,Not Active,Not Active,Not Active,,,,,,,,,
CCn1cc(C(=O)O)c(=O)c2cc(F)c(N3CCNC(C)C3)c(F)c21 (stereo not given) [LOMEFLOXACIN],Not Active,Not Active,Not Active,Not Active,Not Active,Not Active,Not Active,Not Active,,,,,,,,,
CN1CCN(c2c(F)cc3c(=O)c(C(=O)O)cn(CCF)c3c2F)CC1 [FLEROXACIN],Not Active,Not Active,Not Active,Not Active,Not Active,Not Active,Not Active,Not Active,,,,,,,,,
CC(C)(C(=O)O)c1ccc(C(O)CCCN2CCC(C(O)(c3ccccc3)c3ccccc3)CC2)cc1 (stereo not given) [FEXOFENADINE],Not Active,Not Active,Not Active,Not Active,Not Active,Not Active,Not Active,Not Active,,,,,,,,,
C[C@H]1COc2c(N3CCN(C)CC3)c(F)cc3c(=O)c(C(=O)O)cn1c23.C[C@H]1COc2c(N3CCN(C)CC3)c(F)cc3c(=O)c(C(=O)O)cn1c23.O [LEVOFLOXACIN],Not Active,Not Active,Not Active,Not Active,Not Active,Not Active,Not Active,Not Active,,,,,,,,,
NC(=O)c1cccc(N)c1 [3-AMINOBENZAMIDE],Not Active,Not Active,Not Active,Not Active,Not Active,Not Active,Not Active,Not Active,,,,,,,,,
NNCCc1ccccc1 [PHENELZINE],,Not Active,Not Active,Not Active,Not Active,Not Active,Not Active,Not Active,,,,,,,,,
COLISTIN,Not Active,Not Active,Not Active,Not Active,Not Active,Not Active,Not Active,,,,,,,,Not Active,Not Active,Not Active
O=c1c(-c2ccc(O)cc2)coc2cc(O)cc(O)c12 [GENISTEIN],,Not Active,Not Active,Not Active,Not Active,Not Active,Not Active,Not Active,,,,,,,,,
